Test results reported in US20140274969A1 (priority 2013, published 2014).

Experiments:
acute traumatic SCI [1] = assay: ASIA motor recovery after acute traumatic SCI (randomized placebo-controlled trial); type: in vivo, human
Description: The research protocol disclosed herein was approved by the University of Calgary Conjoint Health Research Ethics Board. Between June 2004 and August 2008, all subjects presenting with motor deficit secondary to acute traumatic SCI to the Spine Service at the Foothills Medical Centre in Calgary, Calgary, Alberta, Canada, were immediately identified to the principal investigators and were assessed and screened for this trial (Clinical Trials Gov. Identifier No. NCT00559494). Those within 12 h of injury who met other inclusion criteria (Table 1) were offered enrolment. […] For this purpose, sets of 10 random numbers balanced for odd and even integers were computer generated. Sequentially numbered and sealed packaged kits containing minocycline or placebo were constructed from the randomization codes for each stratified group by an independent individual not otherwise involved in the trial. Patients were administered the next available treatment kit for their appropriate treatment group. With the exception of the bedside nurse responsible for study drug administration, all subjects and research personnel were blinded to treatment until the end of the study (FIG. 1). […] Clin. Exp. Pharmacol. Physiol. 1:299-308). […] Neurological function was assessed at intervals using the American Spinal Cord Injury Association (ASIA) standardized neurological examination and included the motor composites and sensory composites. These examinations were performed by a physical medicine and rehabilitation specialist at Day 1 (time of enrolment), Day 4, Day 5, Day 7, Week 3, Week 6, Week 12, Month 6, and Month 12 (Table 3). Day 1 scores were subtracted from each subsequent score to calculate improvement from baseline for graphing purposes. […] ASIA sensory scores were similarly evaluated. […] Functional recovery data were compared over all data points. […] All statistical tests were two-tailed (a=0.05).

SCI [2] = details: rats; i.p. every 12 h for 3 days, 90 mg/kg then 30 mg/kg; cited from earlier work
[3] = Serum and CSF minocycline steady-state levels in SCI trial subjects
Description: Drug or placebo infusions were continued for a total of 14 doses i.e., for 7 days after injury (FIG. 1). All infusions were administered through a subclavian central venous catheter for a 30-min period.
Each sample was centrifuged at 2000 rpm for 5 min to separate cellular matter. The supernatant was flash frozen and stored at −80° C. in aliquots.

[4] = tested on: hypoxic-ischemic brain injury; details: mice; s.c. 135 mg/kg then two 68 mg/kg doses at 24-h intervals; cited from earlier work
SCI [5] = details: mice; two 50 mg/kg i.p. doses then three 25 mg/kg doses at 24 h intervals; cited from earlier work
acute traumatic SCI [6] = assay: Functional recovery scales (SCIM, FIM, London Handicap, SF36) after SCI; type: in vivo, human; details: 6 to 52 weeks after injury
Description: Clin. Exp. Pharmacol. Physiol. 1:299-308). […] Functional outcome was assessed using the Spinal Cord Independence Measure, Functional Independence Measure, London Handicap scale, and Short Form 36 questionnaires administered at 6 weeks, 12 weeks, 26 weeks, and 52 weeks after injury. […] ASIA sensory scores were similarly evaluated. […] Functional recovery data were compared over all data points. […] All statistical tests were two-tailed (a=0.05).

SCI [7] = details: rats; three 30 mg/kg i.p. doses at 30 min, 60 min, 24 h after SCI; 28-day observation; cited from earlier work
SCI [8] = details: rats; 90 mg/kg immediately after SCI then 45 mg/kg every 12 h; cited from earlier work
[9] = 200 mg twice-daily intravenously
[10] = 800 mg loading dose tapered by 100 mg every 12 h to 400 mg, IV, 7 days

Question: What does the source list for `CN(C)c1ccc(O)c2c1C[C@H]1C[C@H]3[C@H](N(C)C)C(O)=C(C(N)=O)C(=O)[C@@]3(O)C(O)=C1C2=O` [minocycline, (2E,4S,4aR,5aS,12aR)-2-(amino-hydroxy-methylidene)-4,7-bis(dimethylamino)-10,11,12a-trihydroxy-4-a,5,5a,6-tetrahydro-4H-tetracene-1,3,12-trione]?
Answer: ASIA motor recovery greater than placebo (acute traumatic SCI [1]; all subjects with data beyond 3 months (44), 3-12 month plateau, P=0.20): 6 motor points; distribution of motor recovery difference vs placebo: lower extremity and new segment scores (acute traumatic SCI [1]; cervical SCI): majority of the difference; distribution of motor recovery difference vs placebo: upper extremities, zone of partial preservation (acute traumatic SCI [1]; cervical SCI): Little difference; difference in ASIA motor score over placebo (acute traumatic SCI [1]; cervical SCI (n=25), 95% CI 0-28, P=0.05): 14 point; motor recovery, low-dose vs high-dose groups (acute traumatic SCI [1]; cervical SCI subgroups (FIG. 5)): greater difference with higher doses; difference in ASIA motor score over placebo (acute traumatic SCI [1]; cervical motor-complete (n=16), P=0.29): 10 points; difference in ASIA motor score over placebo (acute traumatic SCI [1]; cervical motor-incomplete (n=9), P=0.12): 22 points; difference in ASIA motor score over placebo (acute traumatic SCI [1]; cervical motor-incomplete, excluding one placebo subject with poor recovery (n=8), P=0.135): 13 points; ASIA motor recovery benefit vs placebo (acute traumatic SCI [1]; thoracic SCI (n=17)): did not show any benefit; hindlimb motor function (SCI [2]): significantly increased; CSF steady-state concentration [3, 9]: 1 µg/mL; time to serum steady state [3, 9]: ≤ 48 h; serum steady-state concentration ([3]; 200 mg twice-daily intravenously, first five patients): 4.2 µg/mL; time to serum and CSF steady state ([3]; 800 mg loading dose tapered by 100 mg every 12 h to 400 mg, IV): ≤ 24 h; CSF steady state [3, 10]: 2.3 µg/mL; serum steady-state concentration [3, 10]: 12.7 µg/mL; effects of hypoxic-ischemic brain injury [4]: significantly exacerbated; recovery from SCI (SCI [5]): facilitated significant recovery; functional outcomes (SCIM, FIM, London Handicap Scale, Short Form 36) vs placebo (acute traumatic SCI [6]): greater in the minocycline-treated group but the differences were not statistically significant; recovery in functional hind limb motor control (SCI [7]): facilitated significant recovery; functional motor control in the hind limbs (SCI [8]): improved; size of lesions on spinal cords (SCI [8]): reduced
